Data: patent US7842462B2, “Identification of substances that inhibit NEMO oligomerization” (Institut Pasteur, priority 2006, dated 2010)

Test system: NEMO oligomerization (CFP-NEMO / YFP-NEMO)
Test: FRET between CFP-NEMO and YFP-NEMO in lysates of doubly transfected Nemo-/- MEF cells
Format: cell-based, murine
Details: pECFP-Nemo and pEYFP-Nemo doubly transfected Nemo-/- MEF cells; 30 min incubation with IL-1β (10 ng/ml); excitation 433 nm
Experimental: Rat-1, M319-5b (see supplementary data), 5R fibroblast and wild type, Ikkα^−/−Ikkβ^−/− and Nemo^−/− MEF cells were grown in Dulbecco's modified Eagle's medium supplemented with 10% fetal bovine serum. For 5R cells, 20% 5R conditioned medium was added to fresh culture medium. Transfections using Fugene 6 (Roche) were performed according to the manufacturer protocol using, per well of a 6 well-plate, 2 μg of pECFP-Nemo or pEYFP-Nemo plasmid (single transfection) or 1 μg each (double transfection). For plasmid obtaining, see supplementary data. In NF-κB complementation assays 100 ng of pEF1-lacZ (marker for transfection efficiency) and Igκ-luciferase plasmids were added to the transfection mix. Cell fluorescence was controlled with an Axiovert 200 (Zeiss) inverted microscope one day after transfection.
Cells transfected with the lacZ and the Igκ-luciferase plasmids were trypsinated, pelleted and resuspended in fresh culture medium. Cell suspension was stimulated by IL-1β (BD, Biosciences, 10 ng/ml) or TNFα (BD Biosciences, 20 ng/ml) for 30 min at 37° C. […] Kinase activity in cytosolic extracts or glycerol gradient fractions was detected as described by Yamaoka, S., Courtois, G., Bessia, C., Whiteside, S. T., Weil, R., Agou, F., Kirk, H. E., Kay, R. J. and Israel, A. (1998) Complementation cloning of NEMO, a component of the IkappaB kinase (IKK) complex essential for NF-kappaB activation. […]

IL-1β: pro inflammatory cytokine (BD Biosciences) used as NF-κB pathway activating stimulus
FRET transfer efficiency between CFP and YFP: 21.7%
